Experimental data taken from ChEMBL document CHEMBL5346927, “Discovery of a novel 1H-pyrazole- [3,4-b] pyridine-based lysine demethylase 5B inhibitor with potential anti-prostate cancer activity that perturbs the phosphoinositide 3-kinase/AKT pathway” (Eur J Med Chem, 2023).

Assays:
[1] = target: T1, Lysine-specific demethylase 5B (Homo sapiens, UniProt Q9UGL1); assay: Inhibition of KDM5B (unknown origin)
[2] = target: T1, Lysine-specific demethylase 5B; assay: Inhibition of KDM5B (unknown origin) at 10 uM relative to control

T1 sequence (Q9UGL1 whole entry): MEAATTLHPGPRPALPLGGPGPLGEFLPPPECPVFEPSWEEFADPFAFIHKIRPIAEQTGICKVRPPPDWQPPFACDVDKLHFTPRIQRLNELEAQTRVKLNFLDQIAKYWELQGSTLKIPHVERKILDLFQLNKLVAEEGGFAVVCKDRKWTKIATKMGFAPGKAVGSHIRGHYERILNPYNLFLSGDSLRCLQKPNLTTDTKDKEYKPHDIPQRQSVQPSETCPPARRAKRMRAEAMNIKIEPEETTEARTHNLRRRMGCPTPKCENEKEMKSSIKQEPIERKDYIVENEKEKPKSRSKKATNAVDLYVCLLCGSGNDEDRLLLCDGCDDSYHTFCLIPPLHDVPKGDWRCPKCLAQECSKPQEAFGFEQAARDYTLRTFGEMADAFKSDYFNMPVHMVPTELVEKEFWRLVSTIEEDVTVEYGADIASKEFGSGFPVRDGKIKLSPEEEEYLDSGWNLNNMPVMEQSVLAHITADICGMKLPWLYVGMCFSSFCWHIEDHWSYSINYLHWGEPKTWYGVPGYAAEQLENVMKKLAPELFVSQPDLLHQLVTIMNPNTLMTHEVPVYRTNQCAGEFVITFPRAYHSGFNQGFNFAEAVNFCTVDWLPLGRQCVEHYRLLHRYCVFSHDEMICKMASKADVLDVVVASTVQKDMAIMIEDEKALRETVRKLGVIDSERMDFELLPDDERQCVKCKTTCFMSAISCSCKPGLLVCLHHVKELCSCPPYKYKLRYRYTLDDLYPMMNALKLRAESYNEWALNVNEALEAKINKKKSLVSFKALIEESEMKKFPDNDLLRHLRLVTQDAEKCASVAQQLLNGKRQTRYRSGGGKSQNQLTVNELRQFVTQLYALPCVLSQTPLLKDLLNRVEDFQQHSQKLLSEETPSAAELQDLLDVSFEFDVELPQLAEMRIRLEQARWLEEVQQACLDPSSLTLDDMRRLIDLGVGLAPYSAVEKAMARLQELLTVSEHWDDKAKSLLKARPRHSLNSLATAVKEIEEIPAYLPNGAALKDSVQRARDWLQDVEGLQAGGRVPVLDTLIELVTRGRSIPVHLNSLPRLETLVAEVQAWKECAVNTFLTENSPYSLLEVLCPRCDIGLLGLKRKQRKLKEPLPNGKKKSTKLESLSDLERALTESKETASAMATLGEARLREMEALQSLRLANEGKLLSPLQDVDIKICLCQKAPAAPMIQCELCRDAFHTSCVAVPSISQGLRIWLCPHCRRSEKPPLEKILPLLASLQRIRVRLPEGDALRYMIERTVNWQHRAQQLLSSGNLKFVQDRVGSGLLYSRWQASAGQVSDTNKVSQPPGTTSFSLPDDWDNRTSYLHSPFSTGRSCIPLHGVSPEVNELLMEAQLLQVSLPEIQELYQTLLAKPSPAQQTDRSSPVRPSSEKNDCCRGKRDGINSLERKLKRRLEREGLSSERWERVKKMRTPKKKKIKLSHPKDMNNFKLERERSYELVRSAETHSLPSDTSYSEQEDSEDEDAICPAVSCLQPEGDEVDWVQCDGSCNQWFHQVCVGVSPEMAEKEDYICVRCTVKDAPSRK

Row | IC50 [1] [µM] | inhibition [2] [%] | SMILES
1 | > 10 | -3 | Cc1ccc(-n2ncc3c(C(=O)Nc4cccnc4)cc(-c4ccc5ccccc5c4)nc32)cc1
2 | 2.81 | 67 | Cc1cccc(-c2cc(C(=O)NCCN3CCN(C)CC3)c3cnn(-c4ccccc4)c3n2)c1
3 | 3.34 | 86 | Cc1ccccc1-n1ncc2c(C(=O)NCCN3CCN(C)CC3)cc(-c3ccc4ccccc4c3)nc21
4 | 1.94 | 89 | Cc1ccc(-n2ncc3c(C(=O)NCCN4CCN(C)CC4)cc(-c4ccc5ccccc5c4)nc32)cc1C
5 | > 10 | 31 | CN1CCN(CCNC(=O)c2cc(-c3ccc(Br)cc3)nc3c2cnn3-c2ccccc2)CC1
6 | > 10 | 20 | Cc1cc(C)cc(-n2ncc3c(C(=O)NCCN4CCN(C)CC4)cc(-c4ccccc4)nc32)c1
7 | > 10 | 5 | Cc1ccc(-n2ncc3c(C(=O)NC4CCCC4)cc(-c4ccc5ccccc5c4)nc32)cc1
8 | 5.42 | 64 | Cc1ccc(-n2ncc3c(C(=O)NCCN(C)C)cc(-c4ccc5ccccc5c4)nc32)cc1
9 | > 10 | 14 | Cc1cccc(-n2ncc3c(C(=O)NCCN4CCN(C)CC4)cc(-c4ccccc4)nc32)c1
10 | 3.69 | 79 | Cc1ccc(-n2ncc3c(C(=O)NCCN4CCN(C)CC4)cc(-c4ccccc4)nc32)cc1C
11 | 5.26 | 71 | Cc1ccc(-n2ncc3c(C(=O)NCc4cn(-c5cccc(F)c5)nn4)cc(-c4ccc5ccccc5c4)nc32)cc1
12 | 9.37 | 51 | Cc1ccc(-n2ncc3c(C(=O)NCc4cn(-c5ccc(C)c(C)c5)nn4)cc(-c4ccc5ccccc5c4)nc32)cc1
13 | 6.58 | 58 | Cc1ccc(-n2ncc3c(C(=O)NCc4cn(-c5ccc(I)cc5)nn4)cc(-c4ccc5ccccc5c4)nc32)cc1
14 | > 10 | 40 | Cc1ccc(-n2ncc3c(C(=O)NCCN4CCCCC4)cc(-c4ccc5ccccc5c4)nc32)cc1
15 | > 10 | 6 | CN1CCN(CCNC(=O)c2cc(-c3ccccc3)nc3c2cnn3-c2cccc(Cl)c2)CC1
16 | 0.237 | 88 | COc1ccc(-c2cc(C(=O)NCCN3CCN(C)CC3)c3cnn(-c4ccccc4)c3n2)cc1
17 | 3.08 | 86 | CC(C)c1ccc(-n2ncc3c(C(=O)NCCN4CCN(C)CC4)cc(-c4ccc5ccccc5c4)nc32)cc1
18 | > 10 | 21 | CN1CCN(CCNC(=O)c2cc(-c3ccccc3)nc3c2cnn3-c2ccccc2Cl)CC1
19 | > 10 | 23 | Cc1ccc(-n2ncc3c(C(=O)NCc4cn(-c5ccc(F)cc5)nn4)cc(-c4ccc5ccccc5c4)nc32)cc1
20 | 4.17 | 83 | Cc1ccccc1-n1ncc2c(C(=O)NCCN3CCN(C)CC3)cc(-c3ccccc3)nc21
21 | > 10 | 35 | Cc1cc(C)cc(-c2cc(C(=O)NCCN3CCN(C)CC3)c3cnn(-c4ccc5ccccc5c4)c3n2)c1
22 | > 10 | 28 | C#CNC(=O)c1cc(-c2ccc3ccccc3c2)nc2c1cnn2-c1ccc(C)cc1
23 | 0.132 | 87 | CC(C)c1ccc(-c2cc(C(=O)NCCN3CCN(C)CC3)c3cnn(-c4ccccc4)c3n2)cc1
24 | 1.67 | 95 | Cc1ccc(-n2ncc3c(C(=O)NCCN4CCN(C)CC4)cc(-c4ccccc4)nc32)cc1
25 | 3.99 | 83 | CC(C)c1ccc(-n2ncc3c(C(=O)NCCN4CCN(C)CC4)cc(-c4ccccc4)nc32)cc1
26 | 6.27 | 63 | O=C(NCc1cn(Cc2ccccc2)nn1)c1cc(-c2ccc3ccccc3c2)nc2c1cnn2-c1ccc(C(F)(F)F)cc1
27 | > 10 | 33 | CN1CCN(CCNC(=O)c2cc(-c3ccc4ccccc4c3)nc3c2cnn3-c2ccc(C(F)(F)F)cc2)CC1
28 | > 10 | 20 | CN1CCN(CCNC(=O)c2cc(-c3ccccc3)nc3c2cnn3-c2ccc(C(F)(F)F)cc2)CC1
29 | 920 | – | O=C(O)CNC(=O)C(=O)O [N-OXALYLGLYCINE]
